# Test results from PMC12430278, “A Simple and Reliable Method for the Determination of Isorhapontigenin in Murine Biological Matrices: Application in a Tissue Distribution Study” (Molecules, 2025).
# Read-outs that look alike come from different tables or passages of the source.
# Legend:
# [1] = enzymatic-hydrolysis approach; cited from earlier work
# [2] = tested on: primary airway epithelial cells isolated from patients with chronic obstructive pulmonary disease (COPD); design: method as in PMID 28369685; settings: RES as comparator; cited from earlier work
# [3] = Stability of ISO in tissue homogenates; assay type: in vitro ADME; settings: mouse; for remaining at 6 h, 45 ng/mL / remaining at 6 h, 1600 ng/mL: read-out: Stability Remaining (%, Mean ± SD) Short-Term Stability (6 h on Ice)
# Text: (§1) In bioanalysis, analyte stability in biological matrices is crucial for ensuring accurate and reliable quantification. Instability can result in degradation or transformation during sample collection, storage, or processing, potentially compromising data integrity and study outcomes. Therefore, the stability of ISO in plasma was thoroughly evaluated under various storage conditions (Table 5). Assessing ISO stability in intact tissues is challenging, as replicating the native tissue environment is difficult. Accordingly, only short-term stability (6 h on ice) was assessed in tissue homogenates (Table 6). For post-preparative stability, hepatic homogenate—the most complex matrix—was selected as a representative.
# For tissue samples, namely brain, fat, heart, small intestine, large intestine, kidney, liver, lung, muscle, spleen, and stomach, approximately 35 mg of each tissue was weighed and finely minced with scissors. The samples were homogenized in a 0.2% ascorbic acid solution (freshly prepared daily) in 50% methanol (v/v) at a ratio of 1:5 (w/v) for up to three cycles using a high-throughput tissue homogenizer (Wonbio-L, Wonbio, Shanghai, China) operating at 60 Hz for 60 s per cycle. Subsequently, three volumes of acetonitrile (containing IS at 400 ng/mL) were added to one volume of tissue homogenate. Following vigorous vortexing, the samples were centrifuged at 1902× g for 10 min at 15 °C. The clear supernatant was carefully transferred into an HPLC vial.
# (§2) The stability of ISO was evaluated under various storage conditions. Stock solution stability was assessed after storage at room temperature (25 °C) and –20 °C. The stability of ISO in plasma was examined under the following conditions: short-term storage (25 °C for 24 h), long-term storage (–80 °C for 52 days), three freeze–thaw cycles, and post-preparative stability (samples kept in an autosampler at 4 °C for more than 24 h). As it is difficult to evaluate ISO stability directly in tissues, only the short-term stability in tissue homogenates was assessed (6 h on ice). Similarly, post-preparative stability in processed tissue samples was assessed using liver homogenate as a representative, due to the complexity of the hepatic matrix. Stability was considered acceptable if 85–115% of the initial ISO concentration remained.
# [4] = mice, oral; cited from earlier work
# [5] = design: method as in PMID 39456808; settings: Sprague Dawley rats, two weeks daily oral 100 µmol/kg/day; cited from earlier work
# [6] = Biodistribution study in mice following oral administration; assay type: in vivo, C57BL/6 mice
# Procedure: Following oral administration of ISO at a dose of 200 µmol/kg (equivalent to 51.7 mg/kg), three to four mice (n = 3 or 4) were euthanized at each predetermined time point (5, 10, 20, 40, 60, and 80 min), and biological samples were collected. ISO concentrations were quantified using our validated HPLC-UV method. Exposure levels (AUC) in plasma and other individual biological matrices were calculated based on the mean concentrations at each time point.
# Specific pathogen-free C57BL/6 mice (male; 6–8 weeks old; weight: 18–21 g) were purchased through Shenzhen Glorybay Biotech Co. (Shenzhen, China). The animals had ad libitum access to food and water prior to dosing. ISO was administered as an aqueous suspension (vehicle: 0.3% sodium carboxymethylcellulose with 0.2% L-ascorbic acid; ISO concentration: 5 mg/mL) via oral gavage at a dose of 200 µmol/kg (equivalent to 51.7 mg/kg, dosing volume: 10.34 mL/kg). At each predetermined time point (5, 10, 20, 40, 60 and 80 min) three to four mice (n = 3 or 4) were euthanized through cervical dislocation. Blood samples were collected into heparinized centrifuge tubes and centrifuged to obtain plasma. Following blood collection, the mice were dissected, and major organs/tissues—including the brain, abdominal fat, heart, small intestine, large intestine, kidney, liver, lung, abdominal muscle, spleen, and stomach—were harvested. The organs and tissues were cut into small pieces and rinsed with isotonic saline before being blotted dry. All collected biological samples were placed on dry ice. At the end of the in vivo study, all samples were stored at –80 °C in a deep freezer until HPLC analysis.
# Non-compartmental pharmacokinetic analysis was performed using WinNonlin Standard Version 1.0 (Scientific Consulting Inc., Apex, NC, USA). Plasma and tissue exposure, expressed as the area under the concentration–time curve (AUC), was calculated using the mean values of the individual mice.
# [7] = Stability of ISO in plasma samples under various storage conditions; assay type: in vitro ADME; settings: mouse plasma, read-out: Remaining (%, Mean ± SD)
# Text: as §1
# For the cleanup of plasma samples, three volumes of acetonitrile (containing IS at 400 ng/mL) were added to one volume of murine plasma to precipitate proteins. After vortexing for 20 s, the samples were centrifuged at 1503× g for 10 min at 4 °C. The supernatant was carefully transferred to a glass insert preloaded in an autosampler vial. During each HPLC analysis, 10 μL of supernatant was injected into the HPLC system. The minimum plasma volume required per analysis was 25 μL.
# as §2
# [8] = cited from earlier work
smiles,measurement,setting,value
"COc1cc(/C=C/c2cc(O)cc(O)c2)ccc1O [ISO, trans-3,5,4′-trihydroxy-3′-methoxystilbene]",Glucuronidation,[1],extensive glucuronidation
same,Sulfation,[1],not detected
same,Anti-COPD activity compared with RES,[2],stronger anti-COPD activity than RES
same,"remaining at 6 h, 45 ng/mL","[3]; brain homogenate, 45.0 ng/mL",101 ± 2.1%
same,"remaining at 6 h, 1600 ng/mL","[3]; brain homogenate, 1600 ng/mL",95.9 ± 1.7%
same,"remaining at 6 h, 45 ng/mL","[3]; fat homogenate, 45.0 ng/mL",101 ± 4.4%
same,"remaining at 6 h, 1600 ng/mL","[3]; fat homogenate, 1600 ng/mL",96.8 ± 2.5%
same,"remaining at 6 h, 45 ng/mL","[3]; heart homogenate, 45.0 ng/mL",93.8 ± 3.4%
same,"remaining at 6 h, 1600 ng/mL","[3]; heart homogenate, 1600 ng/mL",106 ± 2%
same,"remaining at 6 h, 45 ng/mL","[3]; kidney homogenate, 45.0 ng/mL",96.8 ± 2.6%
same,"remaining at 6 h, 1600 ng/mL","[3]; kidney homogenate, 1600 ng/mL",97.4 ± 2.8%
same,"remaining at 6 h, 45 ng/mL","[3]; large intestine homogenate, 45.0 ng/mL",92.6 ± 2.9%
same,"remaining at 6 h, 1600 ng/mL","[3]; large intestine homogenate, 1600 ng/mL",90.3 ± 3.6%
same,"remaining at 24 h, 45 ng/mL","[3]; liver homogenate, 45.0 ng/mL, read-out: Stability Remaining (%, Mean ± SD) Post-Preparative Stability (More Than 24 h at 4 °C)",105 ± 2.2%
same,"remaining at 6 h, 45 ng/mL","[3]; liver homogenate, 45.0 ng/mL",103 ± 2.1%
same,"remaining at 24 h, 1600 ng/mL","[3]; liver homogenate, 1600 ng/mL, read-out: Stability Remaining (%, Mean ± SD) Post-Preparative Stability (More Than 24 h at 4 °C)",94.9 ± 1%
same,"remaining at 6 h, 1600 ng/mL","[3]; liver homogenate, 1600 ng/mL",97.8 ± 1.2%
same,"remaining at 6 h, 45 ng/mL","[3]; lung homogenate, 45.0 ng/mL",97.3 ± 4%
same,"remaining at 6 h, 1600 ng/mL","[3]; lung homogenate, 1600 ng/mL",101 ± 1.7%
same,"remaining at 6 h, 45 ng/mL","[3]; muscle homogenate, 45.0 ng/mL",102 ± 5.5%
same,"remaining at 6 h, 1600 ng/mL","[3]; muscle homogenate, 1600 ng/mL",95 ± 2.5%
same,"remaining at 6 h, 45 ng/mL","[3]; small intestine homogenate, 45.0 ng/mL",91.8 ± 4.8%
same,"remaining at 6 h, 1600 ng/mL","[3]; small intestine homogenate, 1600 ng/mL",92.9 ± 3.8%
same,"remaining at 6 h, 45 ng/mL","[3]; spleen homogenate, 45.0 ng/mL",92.7 ± 6%
same,"remaining at 6 h, 1600 ng/mL","[3]; spleen homogenate, 1600 ng/mL",94.3 ± 4.3%
same,"remaining at 6 h, 45 ng/mL","[3]; stomach homogenate, 45.0 ng/mL",95 ± 2.9%
same,"remaining at 6 h, 1600 ng/mL","[3]; stomach homogenate, 1600 ng/mL",97.2 ± 2.2%
same,Time of peak plasma concentrations post-dosing,[4],≤ 15 min
same,Blood cholesterol levels,[5],healthier blood cholesterol levels
same,Body weight gain,[5],less body weight gain
same,Toxicity,[5],no significant toxicity was observed
same,Time at which mean concentrations in plasma and multiple tissues peak,"[6]; oral suspension, 200 µmol/kg (51.7 mg/kg)",10 min
same,Exposure (AUC) ranking across plasma and tissues,"[6]; oral, 200 µmol/kg (51.7 mg/kg), AUC from mean concentrations, 5-80 min",stomach > small intestine > liver > large intestine > plasma > kidney > heart > spleen > lung > muscle
same,Penetration into brain and fat,"[6]; oral, 200 µmol/kg, brain and fat samples, quantifiable levels printed as ≥75 ng/mL",only a few reached quantifiable levels
same,"Detectability of ISO in the kidney, liver, and heart over time","[6]; oral, 200 µmol/kg, kidney, liver, heart",undetectable in some mice as early as 20 min
same,Detectability of ISO in the lung and muscle over time,"[6]; oral, 200 µmol/kg, lung, muscle",detectable in the lung and muscle mainly between 10 and 20 min
same,Quantifiability of ISO in plasma over time,"[6]; oral, 200 µmol/kg, plasma",unquantifiable in one out of four mice by 40 min
same,remaining at 45 ng/mL,"[7]; 45.0 ng/mL, after three freeze and thaw cycles",101 ± 4.4%
same,"remaining at 1248 h, 45 ng/mL","[7]; 45.0 ng/mL, long term-stability (−80 °C for 52 days)",102 ± 1.9%
same,"remaining at 24 h, 45 ng/mL","[7]; 45.0 ng/mL, post-preparative stability (autosampler at 4 °C for at least 24 h)",102 ± 2.7%
same,"remaining at 24 h, 45 ng/mL","[7]; 45.0 ng/mL, short-term stability (24 h at room temperature)",102 ± 3.7%
same,remaining at 1600 ng/mL,"[7]; 1600 ng/mL, after three freeze and thaw cycles",105 ± 1.1%
same,"remaining at 1248 h, 1600 ng/mL","[7]; 1600 ng/mL, long term-stability (−80 °C for 52 days)",106 ± 2.1%
same,"remaining at 24 h, 1600 ng/mL","[7]; 1600 ng/mL, post-preparative stability (autosampler at 4 °C for at least 24 h)",101.7 ± 1%
same,"remaining at 24 h, 1600 ng/mL","[7]; 1600 ng/mL, short-term stability (24 h at room temperature)",101.7 ± 0.9%
same,Change in oral bioavailability after one-week repeated dosing,[8]; one-week repeated dosing,did not result in any significant changes
same,Absolute oral bioavailability,"[8]; rats, oral",20–30%
same,Time of peak plasma concentrations post-dosing,"[8]; rats, oral",≤ 15 min
